Key:
[1] = test system: Human multiple myeloma U266 cells; experiment: Bone metastasis model of human multiple myeloma U266 in NOG mice, serum hIgE level; type: in vivo, NOD/SCID/γc^null (NOG) mice
Experimental: The therapeutic and inhibitory effects of combination use with a bisphosphonate against metastasis in an animal model of metastasis to bone were evaluated in the following manner. Human multiple myeloma U266 cells in an amount of 2×10^6 in 0.2 ml were transplanted to NOD/SCID/γc^null (NOG) mice through their tail vein (10 mice per group). […] 21 days after the transplantation, Aredia containing pamidronate, one of bisphosphonates, as an active ingredient was orally administered at a dose of 1 mg per kg per day for consecutive 8 days (Aredia group). […] 29 days after the tumor transplantation, the human IgE (hIgE) level in the serum was measured, and the therapeutic effect against metastasis to bone was determined (refer to Y. Miyakawa et al.: Establishment of a new model of human multiple myeloma using NOD/SCID/γc^null (NOG) mice. “Biochemical and Biophysical Research Communication”: 2004, 313: 258-262).

Melanoma B16 cells = experiment: Animal model of metastasis to bone, Melanoma B16 cells transplanted to the left ventricle; type: in vivo, C57BL/6 mice; details: oral 1 mg per kg per day
Experimental: The therapeutic effect and inhibitory effect against metastasis in an animal model of metastasis to bone were evaluated in the following manner. Initially, a test animal was anaesthetized with thiamylal, the precordia was disinfected with iodine and 70% ethanol and was incised to 1 cm along with the midline to expose the ribs. The second interspace of the left sternum was needled to a depth of 2 mm with a needle of a tuberculin syringe 30 G. After observing that fresh blood came up into the syringe, cultured tumor cells in an amount of 10^4 cells in 0.1 mL were injected over one minute or longer. At the time when the animal (mouse) was weakened or paralyzed, the mouse was killed with ether anesthesia, and evaluation was conducted (refer to F. Arguello et al.: A Murine Model of Experimental Metastasis to Bone and Bone Marrow. “Cancer Research”: 1988, 48: 6876-6881).
Melanoma B16 cells (10^4/0.1 mL) were transplanted to the left ventricle of 8-week old female C57BL/6 mice (12 mice per group). […] At the time three weeks after the transplantation when the mice were weakened or paralyzed, the mice were killed under inhalation with ether, the target organs were fixed with 10% formalin, and evaluation of tumor metastasis was conducted.

[2] = test system: Human large cell lung carcinoma LC-1 cells; experiment: Tumor growth delay in nude mice with human large cell lung carcinoma LC-1; type: in vivo, BALB/cA-nu/nu mice; details: for Tumor Growth Delay Percentage: total 20 mg per kg
Experimental: As an index of the effect, the tumor growth delay percentage (%) was determined by calculation according to the following equation: Tumor Growth Delay Percentage(%)=(A−B)/B×100 (1)
wherein “A” represents the number of days required for the tumor to increase in its volume as much as 8 times in each cisplatin-administered group; and “B” represents the number of days required for the tumor to increase in its volume as much as 8 times in the control group. In addition, blood urea nitrogen (BUN) was measured as an index of nephrotoxicity.

[3] = test system: murine colorectal cancer Colon 26; experiment: Liver metastasis model of murine colorectal cancer Colon 26 (spleen transplantation), survival; type: in vivo, CDF1 mice
Source text: When cancer cells are transplanted into the spleen of mice, metastatic cancer is selectively formed in the liver. Use of this model enables various therapeutic experiments in order to control metastasis to liver (refer to MORIKAWA, Kiyoshi, Nude Mouse Spleen Transplantation Method as Human Cancer Liver Metastasis Model, “Oncologia”: 1989, 22(2): p. 100-102, and L. Kopper et al.: Experimental Model for Liver Metastasis Formation Using Lewis Lung Tumor.: “Journal of Cancer Research Clinical Oncology”: 1982, 103: p31-38).
Specifically, a liver metastasis model of murine colorectal cancer Colon 26 was established using 6-week old CDF1 mice. The therapeutic and inhibitory activities were assayed using, as an index, the ratio (life prolongation rate; T/C percentage) of the survival time of a drug-administered group (10 mice per group) to the survival time of a non-drug-administered (control) group (10 mice per group). In the drug-administered group, cisplatin as a platinum complex was dissolved in physiological saline and was orally administered. In the control group, physiological saline alone was orally administered.

[4] = three weeks after transplantation, control 9/10

N.N.[Cl][Pt][Cl] [Cisplatin, cisplatin]
hIgE Level in serum ([1]; 29 days after transplantation, oral 1 mg per kg per day each, cisplatin day 1-28, Aredia day 21-28, control 351.7 ng/mL): 210.5 ng/mL | Effect on increase in hIgE level due to metastasis to bone (in words) ([1]; oral 1 mg per kg per day): inhibits the increase in hIgE level | Inhibition of metastasis to bone (in words) (Melanoma B16 cells): significantly inhibits metastasis to bone | Number of mice where metastasis was observed: Vertebral Column, Cervical Region (Melanoma B16 cells; three weeks after transplantation, control 0/10): 0/10 | Number of mice where metastasis was observed: Pectoral Region, Breast Bone (Melanoma B16 cells; three weeks after transplantation, control 4/10): 2/10 | Number of mice where metastasis was observed: Vertebral Column, Sacral Spine (Melanoma B16 cells; three weeks after transplantation, control 6/10): 1/10 | Number of mice where metastasis was observed: Pectoral Region, Blade Bone (Melanoma B16 cells; three weeks after transplantation, control 7/10): 5/10 | Number of mice where metastasis was observed: Vertebral Column, Lumbar Region (Melanoma B16 cells; three weeks after transplantation, control 8/10): 4/10 | Number of mice where metastasis was observed: Pectoral Region, Rib (Melanoma B16 cells; [4]): 5/10 | Number of mice where metastasis was observed: Vertebral Column, Pectoral Region (Melanoma B16 cells; [4]): 6/10 | Tumor Growth Delay Percentage ([2]; intermittent intravenous administration, 6.67 mg per kg three times every 7 days): 265% | Growth of cancer (in words) ([2]; low-dose daily administration): inhibits growth of cancer | Tumor Growth Delay Percentage ([2]; low-dose daily intravenous administration, 1.33 mg per kg for 5 consecutive days x 3 courses): >293% | Life prolongation effect against liver metastasis (in words) ([3]; oral 1 mg per kg per day): remarkable life prolongation effect | Median Survival Time ([3]; oral 1 mg per kg per day in physiological saline, started one day after transplantation, control 16.0): 31.0 days | T/C (life prolongation rate) ([3]; survival time of drug-administered group to control group, oral 1 mg per kg per day): 194%

Source: patent US20080069901A1, “Therapeutic Agent for Metastatic Cancer and Cancer Metastasis Inhibitor” (TMRC Co. , Ltd., priority 2004, published 2008)
